Test results as given in US20050049299A1, “Selective inhibitors of stat-3 activation and uses thereof” (priority 2003, published 2005).

How the values were obtained:
Format in all cases: cell-based, human
[1] = test system: STAT3 nuclear translocation; assay: Immunocytochemistry for STAT3 localization in U266 cells; conditions: 50 μM, 60 minutes
Procedure: U266 cells were incubated alone or with curcumin (50 μM) for 60 minutes and then analyzed for the distribution of STAT3 by immunocytochemistry (originial magnification, 200X).
FIGS. 6A-C show& the effect of cell permeable STAT3 inhibitor peptide (STAT3iP) on STAT3 phosphorylation and cell viability in U266 cells. […] Results are shown as mean (±s.d. indicated by error bar) of absorbance (570 nm) of triplicate cultures compared to the untreated control.
Curcumin-treated multiple myeloma cells were plated on a glass slide by centrifugation using a Cytospin 4 (Thermoshendon, Pittsburg, Pa.), air-dried for 1 h at room temperature, and fixed with cold acetone. After a brief washing in PBS, slides were blocked with 5% normal goat serum for 1 h and then incubated with rabbit polyclonal anti-human STAT3 antibody (dilution, 1:100). After overnight incubation, the slides were washed and then incubated with goat anti-rabbit IgG-Alexa 594 (1:100) for 1 h and counter-stained for nuclei with Hoechst (50 ng/ml) for 5 min. Stained slides were mounted with mounting medium (Sigma Co.) and analyzed under an epifluorescence microscope (Labophot-2, Nikon, Tokyo, Japan). Pictures were captured using Photometrics Coolsnap CF color camera (Nikon, Lewisville, Tex.) and MetaMorph version 4.6.5 software (Universal Imaging Corp., Downingtown, Pa.). […]

MM.1 cells = assay: IL-6-induced proliferation of MM.1 cells; conditions: curcumin 10 μM, 48 h, serum-free
Procedure: (§1) FIGS. 7A-B show& that IL-6 induces proliferation of human multiple myeloma cells and curcumin inhibits it. […] Cell proliferation assays were performed as described below. Results are shown as mean (±s.d.) of percent [^3H] thymidine incorporation or percent proliferation by MTT of triplicate cultures compared to the untreated control.
(§2) The antiproliferative effects of curcumin against different multiple myeloma cell lines were determined by the MTT dye uptake method as described earlier (28). Briefly, the cells (5000/well) were incubated in triplicate in a 96-well plate in the presence or absence of indicated test samples in a final volume of 0.1 ml for 24 h at 37° C. […] The OD at 570 nm was measured using a 96-well multiscanner autoreader (Dynatech MR 5000), with the extraction buffer serving as blank. Percent cell viability cell viability was calculated using the following formula: Percent cell viability=(OD of the experiment samples/OD of the control)×100.
(§3) The antiproliferative effects of curcumin were also monitored by the thymidine incorporation method. […] Six hours before the completion of experiment, cells were pulse treated with 0.5 μCi [^3H]thymidine, and the uptake of [^3H]thymidine was monitored using a Matrix-9600 β-counter (Packard Instruments, Downers Grove, Ill.). […]
(§4) Whether curcumin suppresses the proliferative effects of IL-6 was determined.

MM.1R cells = assay: IL-6-induced proliferation of MM.1R cells; conditions: curcumin 10 μM, 48 h, serum-free
Procedure: as §1, §2, §3, §4

STAT3 phosphorylation = assay: IL-6-induced STAT3 phosphorylation in JMAR cells (Western blot)
Procedure: JMAR cells (2×10^6 cells) were treated with IL-6 (10 ng/ml) for the indicated time and whole cell extracts were prepared. These extracts (30 μg) were resolved on 7.5% SDS-PAGE, electrotransferred to a nitrocellulose membrane and probed for p-STAT3 (upper panel) and stripped and re-probed for STAT3 (lower panel). […] JMAR cells were pretreated with curcumin (50 μM) for indicated durations and stimulated with IL-6 (10 ng/ml) for 10 mins and whole cell extract prepared and probed as mentioned earlier.
JMAR cells were treated with IL-6 for different durations and the levels of p-STAT3 and STAT3 were examined. Treatment with IL-6 as early as 5 mins induced STAT3 phosphorylation in JMAR cells (FIG. 14A, upper panel). However, STAT3 levels were unaffected (FIG. 14A, lower panel).
Further, since IL-6 induced STAT3 phosphorylation in JMAR cells, the ability of curcumin to inhibit this STAT3 phosphorylation was also examined. JMAR cells were pretreated with curcumin for different durations and stimulated with IL-6 for 10 minutes. Both the status of p-STAT3 and STAT3 were determined in the whole cell extracts of these cells. Treatment with curcumin for as early as 30 minutes led to decline in the phosphorylation of STAT3 which declined further with increased exposure to curcumin. Exposure to curcumin for 2 hours inhibited STAT3 phosphorylation in JMAR cells (FIG. 14B, upper panel). The STAT3 levels were unaffected by this treatment (FIG. 14B, lower panel).

MDA 1986LN cells = assay: Proliferation of MDA 1986LN cells (MTT assay)
Procedure: MDA 1986LN cells (2×10^6 cells) were treated with indicated concentrations of AG490 for 8 h and whole extracts prepared. These whole-cell extracts (30 μg) were resolved on 7.5% SDS-PAGE, electrotransferred to a nitrocellulose membrane, probed for p-STAT3 (upper panel), striped and reprobed for STAT3 (middle panel) and β-actin (lower panel). […] The cells were treated with AG490 (100 μM) for the indicated durations and whole cell extracts prepared and analyzed as mentioned earlier. FIG. 15C compares the effect of curcumin and AG490 on proliferation of MDA 1986LN cells by MTT assay.
Further, the proliferation of MDA 1986LN cells when treated with curcumin was compared with AG490 treated cells by performing MTT assay.

[2] = 50 μM curcumin, IL-6 10 ng/ml 10 min

Which results are given for `COc1cc(/C=C/C(=O)CC(=O)/C=C/c2ccc(O)c(OC)c2)ccc1O` [curcumin, diferuloylmethane]?
translocation of STAT3 to the nucleus [1]: prevented the translocation of the STAT3 to the nucleus; IL-6-induced cell proliferation in MM.1 cells (MM.1 cells): inhibited IL-6-induced cell proliferation; IL-6-induced cell proliferation in MM.1R cells (MM.1R cells): inhibited IL-6-induced cell proliferation; earliest treatment time leading to decline of IL-6-induced STAT3 phosphorylation (STAT3 phosphorylation; [2]): 30 min; exposure that inhibited IL-6-induced STAT3 phosphorylation (STAT3 phosphorylation; [2]): 2 h; STAT3 levels (STAT3 phosphorylation; curcumin pretreatment plus IL-6): unaffected; inhibition of proliferation of MDA 1986LN cells compared with AG490 (MDA 1986LN cells): more efficiently that AG490
